Tests used:
A2780 = test: Clonogenic assay, APO866 with or without 100 μM nicotinic acid; format: cell-based
Experimental: (§1) Clonogenic assay: Cells were incubated with APO866 at different concentrations with or without 100 μM nicotinic acid and seeded out on semi-solid agar matrix with sheep red blood cells and growth medium. Following a 3-week incubation period, the colonies were counted and % survival relative to control (untreated) cells was calculated. IC50 values were calculated on basis of survival at different concentrations of APO866.
(§2) Supplement of nicotinic acid to the growth medium can protect against the cytotoxic effects of inhibitors of nicotinamide phosphoribosyltransferase (NAMPRT), including APO866, by synthesizing nicotine adenine dinucleotide (NAD) by an alternative pathway. A cancer cell line, HEPG2, has been shown not to be able to utilize nicotinic acid for NAD synthesis (Cancer Res. 2003 Nov. 1; 63(21):7436-42). We investigated the protective effect of nicotinic acid against APO866 induced cell death in a panel of cell lines of different origin. […] We used continuous treatment with APO866 in a clonogenic assay. Two cell lines, A2780 and NYH were not protected against APO866 when incubated in a medium containing 100 μM nicotinic acid (Table 1). ML-2, HCT-116 and A431 cells display an increase of IC50 values of more than 40-90 fold in nicotinic acid containing medium compared to standard medium. Addition of 100 μM nicotinic acid to the medium had in itself no effect on the survival of the cells (data not shown)

A431 = test: as above; format: cell-based
Experimental: as §1, §2

HCT-116 = test: as above; format: cell-based
Experimental: as §1, §2

ML-2 = test: as above; format: cell-based
Experimental: as §1, §2

NYH = test: as above; format: cell-based
Experimental: as §1, §2

[1] = system: panel of cell lines of different origin; test: Clonogenic assay, continuous APO866 treatment, panel of cell lines; format: cell-based
Experimental: as §1
as §2, with “Addition of 100 μM nicotinic acid to the medium had in itself no effect on the survival of the cells (data not shown)” left out

PC-3 cells = test: LD50 of APO866 in PC-3 cells with and without nicotinic acid; format: cell-based
[2] = Maximally tolerated dose of APO866 in mice; conditions: mouse, in vivo, intraperitoneal; twice a day; Balb/c nude mice; data not shown
[3] = Survival of mice under high dose APO866 with or without oral nicotinic acid; format: in vivo
Experimental: FIG. 2 illustrates the cumulative survival of mice in response to high dose APO866 treatment. Treatment is 60 mg APO866 twice/day for 4 days. NA=nicotinic acid.

A2780 xenografts = test: Subcutaneous A2780 xenograft study
Experimental: (§3) FIG. 4 illustrates the cumulative survival of mice with subcutaneous A2780 xenografts: Time used for each individual mouse's tumour to reach a size of 800 mm3. The mice were treated i.p. with doses of 15 or 50 mg/kg APO866×2/day in two weekly 4-day cycles combined with vehicle p.o. or 50 mg/kg nicotinic acid (NA). Legend on the figure: The p-values of log-rank analysis comparing the individual groups are shown on the figure.
(§4) Mouse studies: In toxicity and xenograft studies NMRI mice and nude mice, respectively, were treated once daily p.o. with 0.5% HPMC in water or nicotinic acid in the same vehicle combined with two daily injections of APO866 in PBS/saline with 3% HPβCD. The mice were treated in two weekly four-day cycles.
(§5) In xenograft studies, 10^7 cancer cells were injected s.c. in a mixture of PBS/matrigel in nude athymic mice.
(§6) We investigated the in vivo rescue effects of nicotinic acid on nude mice carrying xenograft tumours of A2780 and ML-2 cells. APO866 was given twice daily in weekly four-day cycles for two weeks starting when tumours had reached a size of 100 mm^3.

ML-2 xenografts = test: Subcutaneous ML-2 xenograft study
Experimental: as §3, with “FIG. 5” for “FIG. 4”, “subcutaneous ML-2” for “subcutaneous A2780”
as §4, §5, §6

primary lymphocytes = conditions: cited from earlier work
primary intestinal cells = conditions: cited from earlier work
leukemic cells = conditions: WO 1999/053920; cited from earlier work
NAPRT = target: T1, NAPRT (Homo sapiens, UniProt Q6XQN6); conditions: cited from earlier work
T1 sequence (Q6XQN6 1-538): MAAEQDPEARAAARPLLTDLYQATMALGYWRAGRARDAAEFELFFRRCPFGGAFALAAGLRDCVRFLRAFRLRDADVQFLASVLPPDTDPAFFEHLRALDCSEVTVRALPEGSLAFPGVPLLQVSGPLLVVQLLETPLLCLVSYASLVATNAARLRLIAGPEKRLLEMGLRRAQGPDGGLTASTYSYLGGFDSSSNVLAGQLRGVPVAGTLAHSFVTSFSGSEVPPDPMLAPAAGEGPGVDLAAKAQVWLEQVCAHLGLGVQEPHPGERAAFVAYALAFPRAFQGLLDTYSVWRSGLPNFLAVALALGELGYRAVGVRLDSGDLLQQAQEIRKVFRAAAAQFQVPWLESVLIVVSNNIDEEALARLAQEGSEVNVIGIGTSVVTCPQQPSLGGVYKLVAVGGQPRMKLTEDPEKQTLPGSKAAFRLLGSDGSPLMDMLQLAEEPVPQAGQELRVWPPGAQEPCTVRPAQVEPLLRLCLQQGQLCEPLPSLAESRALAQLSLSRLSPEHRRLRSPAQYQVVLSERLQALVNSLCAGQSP

[4] = system: ovarian cancer cell line A2780; test: CellTiterGlo luminescent cell viability assay; format: cell-based; conditions: 3 days treatment, 1 mM nicotinic acid
Experimental: FIG. 7 illustrates cell viability in the ovarian cancer cell line A2780 measured by CellTiterGlo® after 3 days of CHS-828 treatment with and without 1 mM nicotinic acid added to the medium.
(§7) CellTiterGlo® luminescent cell viability assay: Cells were plated in opaque 96-well plates (5,000 cells/well) 24 hours before use and then incubated with drug for 72 hours at the indicated concentrations with or without nicotinic acid (Invitrogen) added to the media. The CellTiterGlo® assay (Promega) was performed according to the manufacturer's instructions and bioluminescence was measured. Analysis and determination of IC50 values were performed by Prizm.

myeloma = conditions: unless nicotinic acid is given 24 hours after the NAMPRTi; Beauparlant et al.; cited from earlier work
[5] = system: colon cancer cell line HCT116; test: CellTiterGlo luminescent cell viability assay; format: cell-based; conditions: 3 days treatment, varying concentrations of nicotinic acid
Experimental: FIG. 8 illustrates cell viability in the colon cancer cell line HCT116 measured by CellTiterGlo® after 3 days of compound 1050 treatment with and without varying concentrations of nicotinic acid added to the medium.
as §7

[6] = system: small cell lung cancer cell line NYH; test: CellTiterGlo luminescent cell viability assay; format: cell-based; conditions: 3 days treatment, 1 mM nicotinic acid
Experimental: FIG. 9 illustrates cell viability in the small cell lung cancer cell line NYH measured by CellTiterGlo® after 3 days of compound 1050 treatment with and without 1 mM nicotinic acid added to the medium.
as §7

[7] = APO866 40 mg/kg i.p. x2/day for 4 days, nicotinic acid 20 mg/kg x1/day p.o. for five days; last treatment day
[8] = increase of IC50 to APO866 with 100 μM nicotinic acid in medium
[9] = 60 mg/kg APO866 twice daily on four consecutive days, vehicle p.o. (no nicotinic acid)

O=C(/C=C/c1cccnc1)NCCCCC1CCN(C(=O)c2ccccc2)CC1 [APO866]
protection against APO866 in medium containing nicotinic acid (A2780; 100 μM nicotinic acid): not protected
NA rescue effect (A2780; [8]): − (No rescue effect defined as <2-fold increase in IC50)
increase of IC50 values in nicotinic acid containing medium compared to standard medium (A431; 100 μM nicotinic acid): 40-90 fold
NA rescue effect (A431; [8]): + (Rescue effect defined as >39-fold increase of IC50 to APO866 treatment)
increase of IC50 values in nicotinic acid containing medium compared to standard medium (HCT-116; 100 μM nicotinic acid): 40-90 fold
NA rescue effect (HCT-116; [8]): + (Rescue effect defined as >39-fold increase of IC50 to APO866 treatment)
increase of IC50 values in nicotinic acid containing medium compared to standard medium (ML-2; 100 μM nicotinic acid): 40-90 fold
NA rescue effect (ML-2; [8]): + (Rescue effect defined as >39-fold increase of IC50 to APO866 treatment)
protection against APO866 in medium containing nicotinic acid (NYH; 100 μM nicotinic acid): not protected
NA rescue effect (NYH; [8]): − (No rescue effect defined as <2-fold increase in IC50)
IC50 ([1]; range over the cell lines of the panel, continuous treatment): 1 to 13 nM
LD50 (PC-3 cells; with nicotinic acid (100 μM) present): 5.5 ± 1.4 nM
LD50 (PC-3 cells; without nicotinic acid): 4.8 ± 3.0 nM
MTD [2]: 15 mg/kg
survival of mice ([3]; 60 mg/kg APO866 twice daily on four consecutive days combined with 50 mg/kg/day nicotinic acid p.o., until day 26): all the mice of the group treated with nicotinic acid survived
death of mice [3, 9]: the majority of the control mice died on day 3 and 4
mice that survive the initial toxicity and recover [3, 9]: 1 of 7
increase of lifespan (% ILS, until tumour size of 800 mm3) compared to the control group (A2780 xenografts; 15 mg/kg APO866 i.p. twice daily, weekly four-day cycles for two weeks): 50%
anti-proliferative effect with nicotinic acid co-treatment (A2780 xenografts; 15 mg/kg APO866 with 50 mg/kg nicotinic acid): negates the anti-proliferative effect
increase in % ILS (A2780 xenografts; 50 mg/kg APO866 i.p. and 50 mg/kg nicotinic acid p.o.): 180%
body weight between the groups (A2780 xenografts; during the study, data not shown): did not vary significantly
survival compared with controls (ML-2 xenografts; 15 mg/kg APO866 and nicotinic acid, p=0.14): not significantly different from controls
tumour growth compared with untreated controls (ML-2 xenografts; 50 mg/kg APO866 and nicotinic acid, p=0.002): reduced tumour growth
effect on tumour size compared with 15 mg/kg APO866 and nicotinic acid (ML-2 xenografts; 50 mg/kg APO866 combined with nicotinic acid, p=0.97): does not improve the effect on tumour size in a significant way
effect on tumours (ML-2 xenografts; APO866 only): complete elimination of the tumours before day 10
body weight change between the groups (ML-2 xenografts; data not shown): No overall differences in body weight change
anti-proliferative effect with nicotinic acid co-administered (ML-2 xenografts; same APO866 dose with nicotinic acid): partially negated
effect of vitamin PP compounds on cytotoxic effect (primary lymphocytes): neutralise the cytotoxic effect
effect of vitamin PP compounds on cytotoxic effect (primary intestinal cells): neutralise the cytotoxic effect
effect of vitamin PP compounds on cytotoxicity (leukemic cells): neutralise the cytotoxicity
inhibition of the enzyme NAPRT (NAPRT): not inhibited

N#CN=C(NCCCCCCOc1ccc(Cl)cc1)Nc1ccncc1 [CHS828]
rescue by nicotinic acid from cytotoxicity [4]: minimally rescued

COCCOCCOCCOCCOC(=O)OC[n+]1ccc(N/C(=N/C#N)NCCCCCCOc2ccc(Cl)cc2)cc1.[Cl-] [GMX1777]
effect of nicotinic acid on antitumour effect (myeloma): abrogates the antitumour effect

N#C/N=C(\NCCCCCCC(=O)N(Cc1ccccc1)OC1CCCCC1)Nc1ccncc1 [Compound 1050]
rescue by nicotinic acid from treatment [5]: can rescue
rescue by nicotinic acid from treatment [6]: not similarly protected

O=C(O)c1cccnc1 [nicotinic acid]
effect of nicotinic acid in itself on the survival of the cells ([1]; 100 μM nicotinic acid added to the medium, data not shown): no effect
protection against APO866-induced death ([3]; nicotinic acid administered on the same days as APO866): protects against death even at four times the normal MTD
platelet count upon APO866 treatment, nicotinic acid group compared to control [7]: significantly improved
